Data on seven molecules can be found in patent US6071884A, “Pharmaceutical compositions and therapeutic methods” (Kirin Beer Kabushiki Kaisha, priority 1992, dated 2000).

The subject of assay [1] is marrow cells (mononuclear cell fraction). Nature of the assay: Proliferation-stimulating effect on marrow cell of mouse (3H-TdR uptake). It is filed as cell-based, mouse (BALB/c). To be noted: percentage of control, 72 h; for activity at 0.1 µg/mL: 10^-1 μg/ml; for activity at 0.01 µg/mL: 10^-2 μg/ml; for activity at 0.001 µg/mL: 10^-3 μg/ml; for activity at 1 µg/mL: 10^0 μg/ml. The protocol: Pharmacological Test 1: Proliferation-Stimulating Effect on Marrow Cell of Mouse
Marrow cells were prepared from the thigh bone of a 7 week old female BALB/c mouse purchased from Japan SLC Co., Ltd., and a mononuclear cell fraction (MNF) obtained by fractionation using a lympholyte-M (Cedar Lane, Ontario, Canada) was used in the following experiment.
The concentration of the MNF was adjusted to 1.5×10^6 cells/ml by using 10% FCS RPMI 1640 (Nissui Pharmaceutical Co., Ltd., Tokyo, Japan) as a culture medium. 10 μl/well of a sample with a predetermined concentration and 100 μl/well of the above-prepared MNF were placed on a round-bottomed 96 well plate, and incubated under the conditions of 37° C. and 5% CO2 for 72 hours. Thereafter, 0.5 μCi/well of ^3 H-thymidine (^3 H-TDR) was added. After 8 hour incubation, the cells were harvested, and the amount of the 3H-TdR taken in the nuclei was measured by a liquid scintillation counter.

Assay [2] in a line: Life-span-increasing effect on irradiation of a lethal dose of radiation. It is filed as in vivo, mouse (BDF1). To be noted: 10 mice/group, 9 Gy X-ray, 0.1 mg/kg i.v. days 0, 4, 8. The protocol:
Pharmacological Test 4: Life-Span-Increasing Effect on Irradiation of a Lethal Dose of Radiation
An experiment was carried out by using 6 week old female BDF1 mice purchased from Japan SLC Co., Ltd., with 10 mice made one group.
The entire bodies of the entire body of the mice were irradiated with 9 Gy of X-rays by using a Hitachi X-ray irradiator (MBR-1520R), and the day on which the X-ray was irradiated was referred to as "day 0".

Assay [3] deals with blood platelets. Nature of the assay: Thrombocytopenia-inhibiting effect in X-ray-irradiated mice. It is filed as in vivo, mouse (BDF1). The following applies: 10 days after 5 Gy X-ray; 0.1 mg/kg i.v. within 2 h; mean ± SD; vehicle per series 10.3, 6.8, 6.7; non-treatment 68.2, 96.9, 73.0. The protocol: Pharmacological Test 5: Thromboclytopenia-Inhibiting Effect
The thrombocytopenia-inhibiting effect of each sample upon an X-ray-irradiated mouser which is one of models with a decreased number of blood platelets was examined.
An experiment was carried out by using 6 week old female BDF1 mice purchased from Japan SLC Co., Ltd., with 6 mice made one group.
5 Gy of X ray was irradiated to the entire body of the mice by a Hitachi X-ray irradiator CMBR-1520R). Within 2 hours after the irradiation, each sample was administered to the caudal vein of the mice at an amount of 0.1 mg/kg.
After 10 days, blood was collected from the fundus vein of the mice, and the number of blood platelets was measured by a sequential multi-channel hemocytometer E-2500/cs (Toa Iyo Denshi Kabushiki Kaisha). The number of blood platelets of the non-treated group, that of the medium-administered group, and that of the sample-administered group are shown in Table 5.

Assay [4] concerns blood platelets. The assay can be described thus: Blood-platelet-increasing effect upon normal mouse. It is filed as in vivo, mouse (BDF1). To be noted: normal mice; 6 days after 0.1 mg/kg i.v.; mean ± SD; vehicle per series 58.2, 63.0, 71.1. The protocol: Pharmacological Test 6: Blood-Platelet-Increasing Effect upon Mouse
An experiment was carried out by using 6 week old female BDF1 mice purchased from Japan SLC Co., Ltd., with 5 mice made one group.
Each sample was administered to the caudal vein of the mice at a dose of 0.1 mg/kg. After 6 days, blood was collected from the fundus vein of the mice, and the number of blood platelets was measured by a sequential multi-channel hemocytometer E-2500/cs (Toa Iyo Denshi Kabushiki Kaisha). The number of blood platelets of the vehicle-administered group, and that of the sample-administered group are shown in Table 6.

[5] abbreviates: day 10, controls per series 10, 10, 10, 10, 10, 8.
[6] abbreviates: day 15, controls per series 8, 9, 5, 5, 7, 1.
[7] abbreviates: day 20, controls per series 4, 5, 1, 2, 3, 0.
[8] abbreviates: day 25, controls per series 3, 3, 0, 0, 2, 0.
Setting [9] is: day 30, controls per series 1, 1, 0, 0, 0, 0.

On to `CCCCCCCCCCCCCCCCCCCC(=O)N[C@@H](CO[C@H]1O[C@H](CO)[C@H](O)[C@H](O)[C@H]1O)[C@H](O)CCCCCCCCCCCCCCC` [Compound 3, (2S,3R)-1-(α-D-galactopyranosyloxy)-2-icosanoylamino-3-octadecanol], for which, in assay [1], the activity at 0.1 µg/mL was 234%. Further, the activity at 0.01 µg/mL in assay [1] came to 87%. Further, the activity at 0.001 µg/mL in assay [1] is 84%. The “Number of Surviving Mice” value in assay [2] (setting [5]) came to 10 mice; in assay [2] (setting [6]) it was 9 mice; in assay [2] (setting [7]), 8 mice; in assay [2] (setting [8]), 8 mice; in assay [2] (setting [9]) it was 8 mice; in assay [2] (day 35, all controls 0), 8 mice. In addition, the “Number of Surviving Mice” value in assay [2] (day 40, all controls 0) was determined as 8 mice. Besides, the “Number of Blood Platelets” value is 20.6 ± 4.5 × 10^4 /μl in assay [3] and 102.0 ± 10.8 × 10^4 /μl in assay [4].
Take `CCCCCCCCCCCCCCCCCCCCCCCC(=O)N[C@@H](CO[C@H]1O[C@H](CO)[C@H](O)[C@H](O)[C@H]1O)[C@H](O)[C@H](O)CCCCCCC` [Compound 19, (2S,3S,4R)-1-(α-D-galactopyranosyloxy)-2-tetracosanoylamino-3,4-undecanediol]: the activity at 0.1 µg/mL in assay [1] worked out at 499%. Moreover, the activity at 0.01 µg/mL in assay [1] came out at 207%. Further, the activity at 0.001 µg/mL in assay [1] amounted to 173%. The “Number of Surviving Mice” value in assay [2] (setting [5]) was 10 mice; in assay [2] (setting [6]) it was 10 mice; in assay [2] (setting [7]), 10 mice; in assay [2] (setting [8]), 10 mice; in assay [2] (setting [9]), 10 mice; in assay [2] (day 35, all controls 0) it was 10 mice. In addition, the “Number of Surviving Mice” value in assay [2] (day 40, all controls 0) came to 10 mice. Besides, the “Number of Blood Platelets” value in assay [3] is given as 23.4 ± 4.2 × 10^4 /μl; in assay [4], 106.4 ± 12.7 × 10^4 /μl.
In the case of `CCCCCCCCCCCCCCCCCCCCCCCC(=O)N[C@@H](CO[C@H]1O[C@H](CO)[C@H](O)[C@H](O)[C@H]1O)[C@H](O)CCCCCCCCCCCCCCC` [Compound 1, (2S,3R)-1-(α-D-galactopyranosyloxy)-2-tetracosanoylamino-3-octadecanol], in assay [1], the activity at 0.1 µg/mL turned out to be 465%. Also, the activity at 0.01 µg/mL in assay [1] worked out at 263%. The activity at 0.001 µg/mL in assay [1] came out at 134%. Moreover, the “Number of Surviving Mice” value stood at 10 mice in assay [2] (setting [5]); 10 mice in assay [2] (setting [6]); 10 mice in assay [2] (setting [7]); 9 mice in assay [2] (setting [8]); 9 mice in assay [2] (setting [9]); 9 mice in assay [2] (day 35, all controls 0). Besides, in assay [2] (day 40, all controls 0), the “Number of Surviving Mice” value amounted to 9 mice. Moreover, the “Number of Blood Platelets” value in assay [3] was 25.4 ± 6.8 × 10^4 /μl; in assay [4], 112.2 ± 6.5 × 10^4 /μl.
For `CCCCCCCCCCCCCCC[C@@H](O)[C@H](CO[C@H]1O[C@H](CO)[C@H](O)[C@H](O)[C@H]1O)NC(C)=O` [Compound 8, (2S,3R)-2-acetamino-1-(α-D-galactopyranosyloxy)-3-octadecanol], the activity at 0.1 µg/mL in assay [1] was 232%. In assay [1], the activity at 0.01 µg/mL came to 81%. For the same molecule, the activity at 0.001 µg/mL in assay [1] was 129%. Moreover, the “Number of Surviving Mice” value in assay [2] (setting [5]) is 10 mice; in assay [2] (setting [6]), 5 mice; in assay [2] (setting [7]) it was 1 mice; in assay [2] (setting [8]), 1 mice; in assay [2] (setting [9]) it was 1 mice; in assay [2] (day 35, all controls 0) it was 1 mice. Further, in assay [2] (day 40, all controls 0), the “Number of Surviving Mice” value worked out at 1 mice. The “Number of Blood Platelets” value is reported as 8.1 ± 2.6 × 10^4 /μl in assay [3] and 96.6 ± 3.2 × 10^4 /μl in assay [4].
`CCCCCCCCCCCCC/C=C/[C@@H](O)[C@H](CO[C@H]1O[C@H](CO)[C@H](O)[C@H](O)[C@H]1O)NC(=O)CCCCCCCCCCCCC` [Compound 32, (2S,3R,4E)-1-(α-D-galactopyranosyloxy)-2-tetradecanoylamino-4-octadecen-3-ol]: the activity at 1 µg/mL in assay [1] was determined as 871%. Moreover, in assay [1], the activity at 0.1 µg/mL came out at 405%. In addition, in assay [1], the activity at 0.01 µg/mL stood at 151%. Also, in assay [1], the activity at 0.001 µg/mL is 115%. The “Number of Surviving Mice” value amounted to 10 mice in assay [2] (setting [5]); 9 mice in assay [2] (setting [6]); 4 mice in assay [2] (setting [7]); 3 mice in assay [2] (setting [8]); 3 mice in assay [2] (setting [9]); 3 mice in assay [2] (day 35, all controls 0). Besides, the “Number of Surviving Mice” value in assay [2] (day 40, all controls 0) turned out to be 3 mice. In addition, the “Number of Blood Platelets” value in assay [3] is 16.4 ± 3.2 × 10^4 /μl; in assay [4], 88.3 ± 4.2 × 10^4 /μl.
As to `CCCCCCCCCCCCCCCCCCCCCCCC(=O)N[C@@H](CO[C@H]1O[C@H](CO)[C@H](O)[C@H](O)[C@H]1O)[C@H](O)CCCCCCCCCCC` [Compound 9, (2S,3R)-1-(α-D-galactopyranosyloxy)-2-tetracosanoylamino-3-tetradecanol], in assay [1], the activity at 0.1 µg/mL stood at 547%. For the same molecule, the activity at 0.01 µg/mL in assay [1] was determined as 103%. Moreover, the activity at 0.001 µg/mL in assay [1] came to 134%. The “Number of Surviving Mice” value in assay [2] (setting [5]) was 10 mice; in assay [2] (setting [6]) it was 8 mice; in assay [2] (setting [7]), 6 mice; in assay [2] (setting [8]), 6 mice; in assay [2] (setting [9]) it was 6 mice; in assay [2] (day 35, all controls 0), 6 mice. Moreover, in assay [2] (day 40, all controls 0), the “Number of Surviving Mice” value worked out at 6 mice. For the same molecule, the “Number of Blood Platelets” value is reported as 17.6 ± 3.4 × 10^4 /μl in assay [3] and 100.5 ± 8.3 × 10^4 /μl in assay [4].
With `CCCCCCCCCCCCCCCCCCCCCC[C@@H](O)C(=O)N[C@@H](CO[C@H]1O[C@H](CO)[C@H](O)[C@H](O)[C@H]1O)[C@H](O)[C@H](O)CCCCCCC` [Compound 24, (2S,3S,4R)-1-(α-D-galactopyranosyloxy)-2-[(R)-2-hydroxytetracosanoylamino]-3,4-undecanediol], the activity at 1 µg/mL in assay [1] is 576%. Moreover, the activity at 0.1 µg/mL in assay [1] is 197%. For the same molecule, the activity at 0.01 µg/mL in assay [1] stood at 79%. The activity at 0.001 µg/mL in assay [1] is 77%. Further, the “Number of Surviving Mice” value in assay [2] (setting [5]) came out at 10 mice; in assay [2] (setting [6]), 9 mice; in assay [2] (setting [7]) it was 9 mice; in assay [2] (setting [8]), 9 mice; in assay [2] (setting [9]) it was 9 mice; in assay [2] (day 35, all controls 0) it was 9 mice. In assay [2] (day 40, all controls 0), the “Number of Surviving Mice” value is given as 9 mice. In addition, the “Number of Blood Platelets” value is 21.6 ± 7.2 × 10^4 /μl in assay [3] and 102.6 ± 9.9 × 10^4 /μl in assay [4].
